Assay results: patent US20260041677A1, “COMPOSITIONS AND METHODS FOR TREATING ADENOID CYSTIC CARCINOMA” (ELEVAR THERAPEUTICS, INC., priority 2022, published 2026)

Experiments:
[1] = test system: recurrent or metastatic (R/M) adenoid cystic carcinoma (ACC); experiment: Phase 2 study of rivoceranib in R/M ACC: response, PFS, TTP per CHOI response criteria by BIRC; assay type: in vivo, human; conditions: for Complete Response / DoR 25th percentile / DoR 75th percentile / DoR Median / Partial Response / Progressive Disease / Stable Disease / DCR (disease control rate): BIRC
From the text: Objectives: Primary objectives were to evaluate safety & tolerability, efficacy by objective response rate (ORR), best overall response (BOR), time to response, duration of response, disease control rate, and duration of disease control. Secondary objectives were to evaluate efficacy as measured by overall survival, progression-free survival and event-free survival. The primary efficacy endpoint was the ORR, defined as the proportion of patients who achieved confirmed complete response (CR) or partial response (PR) per Response Evaluation Criteria in Solid Tumors (RECIST) Version 1.1 (V1.1). The secondary efficacy endpoints were duration of response (DoR) assessed by the investigator and a blinded independent review committee (BIRC), progression-free survival (PFS) assessed at 6 months, 12 months, and 2 years by investigator and BIRC, Time to Progression (TTP) assessed by investigator and BIRC, and overall survival (OS) assessed at 1 and 2 years. Exploratory efficacy endpoints include ORR per CHOI response criteria (based on the journal article, Choi et al., Correlation of computed tomography and positron emission tomography in patients with metastatic gastrointestinal stromal tumor treated at a single institution with imatinib mesylate: proposal of new computed tomography response criteria. J Clin Oncol. 2007; 25(13): 1753-1759) by a blinded independent review […] (BIRC) and disease control rate (DCR) per RECIST V1.1 by Investigator and BIRC. Except for CHOI response criteria, all response endpoints were assessed per RECIST V1.1 by Investigator and BIRC.
Endpoint of Response per CHOI response Criteria: CHOI response criteria assesses response based on change in tumor density as well as change in tumor size and have been most often used to assess response to treatment with tyrosine kinase inhibitors such as imatinib in gastrointestinal stromal tumors (GIST) where RECIST criteria underestimate response. Evaluation of response per CHOI response criteria by BIRC was added to the protocol for exploratory analysis because Investigators observed decreases in tumor density on treatment with rivoceranib without changes in tumor lesion diameters. Changes in tumor density had not been reported with other treatments investigated for R/M ACC.
Objective response rate (ORR), duration of response (DOR) and disease control rate (DCR) in the efficacy evaluable population per CHOI response criteria (using the same data set as used for analyses per RECIST V1.1): Assessment of response per CHOI response criteria required a subject have contrast-enhanced CT scan as the imaging modality for assessment of tumor density at baseline and post-baseline time points. Therefore, fewer subjects were efficacy evaluable per CHOI response criteria (N=60) than per RECIST V1.1 criteria (N=73). […] This is >4-fold higher than the ORR of 9.6% per RECIST V1.1 reported by BIRC. […] Median DOR per CHOI response criteria was 14.8 months, which was two-fold higher than that reported per RECIST V1.1-7.2 months reported by BIRC.

R/M ACC = conditions: RECIST V1.1; 500 mg QD; 68 patients, head and neck R/M ACC; cited from earlier work
[2] = CHOI criteria, Total N = 60, 700 mg QD start
[3] = CHOI criteria, VEGFRi-naïve N = 48, 700 mg QD start
[4] = CHOI criteria, VEGFRi-treated N = 12, 700 mg QD start
[5] = CHOI criteria, efficacy evaluable population, 700 mg QD start

With N#CC1(c2ccc(NC(=O)c3cccnc3NCc3ccncc3)cc2)CCCC1 [Rivoceranib, N-[4-(1-cyanocyclopentyl)phenyl]-2-{[(pyridin-4-yl)methyl]amino}pyridine-3-carboxamide] the “ORR per CHOI criteria relative to ORR per RECIST V1.1 by BIRC” value ([1]; 51.7% vs 9.6%) was over 4 fold, the “Complete Response” value [1, 2] was 0% and the “DoR 25th percentile” value [1, 2] was 7.2 months. The “DoR 75th percentile” value [1, 2] was 20.2 months, the “DoR Median” value [1, 2] was 14.8 months and the “Partial Response” value [1, 2] was “(51.7) %”. For the same compound, the “Progressive Disease” value [1, 2] was “(6.7) %”, the “Stable Disease” value [1, 2] was “(41.7) %” and the “Complete Response” value [1, 3] was 0%. The “DCR (disease control rate)” value [1, 3] was “(60.4) %”, the “DoR 25th percentile” value [1, 3] was 7.2 months and the “DoR 75th percentile” value [1, 3] was 20.2 months. The “DoR Median” value [1, 3] was 14.8 months, the “Partial Response” value [1, 3] was “(52.1) %” and the “Progressive Disease” value [1, 3] was “(6.3) %”. The “Stable Disease” value [1, 3] was “(41.7) %”, the “Complete Response” value [1, 4] was 0% and the “DCR (disease control rate)” value [1, 4] was “(66.7) %”. For the same compound, the “DoR 25th percentile” value [1, 4] was 12.2 months, the “DoR Median” value [1, 4] was 12.2 months and the “Partial Response” value [1, 4] was “(50.0) %”. The “Progressive Disease” value [1, 4] was “(8.3) %”, the “Stable Disease” value [1, 4] was “(41.7) %” and the “Median TTP” value [1, 5] was 14.4 months. The “estimated PFS rate at 6 months” value [1, 5] was 80.4%, the “estimated PFS rate at 9 months” value [1, 5] was 62.6% and the “estimated PFS rate at 12 months” value [1, 5] was 53.8%. For the same compound, the “estimated TTP rate at 6 months” value [1, 5] was 82%, the “estimated TTP rate at 9 months” value [1, 5] was 67.7% and the “estimated TTP rate at 12 months” value [1, 5] was 58.3%. For the same compound, the “median PFS” value [1, 5] was 13.8 months, the “6-month PFS” value (R/M ACC) was 92.3% and the ORR (R/M ACC) was 46.2%. For the same compound, the “median DOR” value (R/M ACC) was 17.7 months.
